Entries after “also recorded” stand apart in the source; their conditions may differ. Where two headings read alike, the source gives them in different places.
Tests used:
[1] = tested on: Total bacteria; test: Removal of bacteria from high H2S water, Luminultra ATP test method (Example 17); type: cell-based
Description: A high H2S water sample near Odessa, Tex., USA was tested for H2S and bacteria removal.
A 600 mL portion of the water was transferred by siphon pump to a 1 L beaker outfitted with a magnetic stir bar, pH probe, ORP probe and a sealed cover with a small opening for adding chemicals. The solution was mixed at a moderate rate at room temperature using a magnetic stir plate while a 17% hydrogen peroxide solution was added in a 1.9:1 molar ratio of oxidant to sulfide to remove about 80% of the H2S. […] After 10 minutes of reaction time aluminum coagulant and anionic flocculation polymer dispersion were added causing a rapid flocculation and settling of most of the pale yellow solids. The clarified supernatant was decanted to a second beaker outfitted the same as the first.
A 500 mL portion of the supernatant above was mixed while a 2.1% sodium peracetate solution was added in a 1.6:1 molar ratio of oxidant to sulfide to remove the remaining 20% of the H2S and promote a final clarification and bacteria removal. […] After 10 minutes of reaction time aluminum coagulant and anionic flocculation polymer dispersion were added causing a rapid flocculation and settling of the pale solids.

[2] = for time until ORP rose above 100 mV indicating H2S fully oxidized: 80 mg/L H2S water
Description: Hydrogen peroxide is an inexpensive oxidant for H2S removal, but is slow acting relative to several other oxidants. Shortening the reaction time or contact time required in a water treatment process reduces the volume of contact basins or increases the throughput of a treatment process such as that described in Example 17.
A portion of the 80 mg/L H2S water was treated by mixing into it a 17% wt/wt solution of hydrogen peroxide such that the molar ratio of hydrogen peroxide to sulfide was about 5.7:1. Hydrogen peroxide was added in excess such that it was not a limiting reagent in the oxidation reaction. The ORP and pH of the water was monitored to track the oxidation rate of H2S. FIG. 3 depicts the progression of ORP and pH over time during oxidation.
A second portion of the 80 mg/L H2S water was treated by mixing into it a 17% wt/wt solution of hydrogen peroxide such that the molar ratio of hydrogen peroxide to sulfide was about 5.7:1. A small portion of muriatic acid (about 34% hydrochloric acid solution) was added with the hydrogen peroxide to slightly lower the pH to between 6.5 and 7.0 thereby converting at least a portion of the NaHS to H2S and accelerate the reaction rate. FIG. 4 depicts the progression of ORP and pH over time during oxidation.

[3] = 7% sodium peracetate solution in clean water; cited from earlier work
[4] = tested on: naturally occurring microbes; test: Preservation of guar mixture against microbial growth; type: cell-based; details: about 65 mg/L oxidant, at least a week at room temperature
Description: The use of the sodium peracetate oxidant formulation was tested for the depolymerization and break down of guar gum.
The guar mixture was made by rapidly mixing 10 g/L food grade guar gum powder into a 10 g/L sodium chloride solution in distilled water. The blended mixture was heated to about 35-40° C. in a heated water bath for at least one hour to fully hydrate the guar. The mixture appeared translucent with fine, milky white suspended solids. […] Several 60 mL portions of the guar mixture were prepared for different treatments as summarized in Table I. The first was a control sample to which no oxidant was added. The remaining samples had increasing amounts of sodium peracetate oxidant added to them. […] The oxidant was rapidly mixed with the guar mixture resulting in a pale yellow color. The mixtures were placed in a water bath at about 35-40° C. and the yellow color gradually faded away over the next hour. After two hours the samples were cooled to room temperature.
The control sample remained viscous for a day, but lost viscosity after sitting at room temperature overnight and microbial growth as a biofilm was visible after a week. […] The fine, suspended solids settled out leaving a clear, colorless solution. A second treatment of the last sample reduced the viscosity further by a small amount.

[5] = Stability of sodium peracetate oxidant solution (half-life, loss of active oxidant); type: physicochemical
Text: However, the sodium peracetate oxidant solutions were discovered to be stable enough, when diluted to below 1% concentration, to have a working time practical for producing large volumes of treatment fluids in a tank for down-hole well treatment applications including hydrogen sulfide mitigation, bacteria reduction, iron sulfide scale cleaning and polymer gel breaking.
In some embodiments, to conduct a well treatment a large, diluted volume of sodium peracetate oxidant solution is preferably staged in a carrier fluid having no oxidant demand. The carrier fluid may include fresh water, salt water, treated production water and, optionally, combined with other treatment chemicals such as hydrochloric acid, citric acid, acetic acid, acid-containing micellar solvent, corrosion inhibitor, and iron chelant. Lower concentrations, less than 1%, of sodium peracetate oxidant may be staged for a limited period of time with small losses in active oxidant. For example, a 0.25% solution is expected to lose about 4-6% of its active sodium peracetate per hour at 20° C. A container, tank or tanker truck of sodium peracetate solution must be vented to release oxygen gas byproduct evolved from the oxidant as it naturally degrades in a carrier fluid.
In this example a diluted sodium peracetate oxidant solution is staged in 500 barrel (21,000 gal) quantities produced in a 55 minute period. […]

[6] = tested on: sulfate reducing bacteria (SRB); test: Uintah basin produced water: sulfate reducing bacteria level; type: cell-based; details: for SRB: untreated 10-100
Description: (§1) Produced water from the Uintah basin in eastern Utah was tested for sulfide treatment and clarification with sodium peracetate solution. The untreated water appeared green-grey in color, was pH 8.1 and contained about 30 mg/L H2S (as S^2), 90 mg/L organic or other sulfides (as S^2−), and 90 mg/L sulfate. Total iron was about 5 mg/L therefore iron sulfide was only a minor sulfide component.
(§2) A first water sample was treated by a “partial oxidation” in Table II with sodium peracetate oxidant solution. The water was stirred in a closed container while sodium peracetate oxidant was added in a 1.25:1 molar ratio of oxidant to H2S. Aluminum coagulant (about 35 mg/L as Al) was added with the oxidant. The mixture was stirred for 30 seconds and then about 5 mg/L of anionic polymer was added. Large floe formed rapidly over the next 60 seconds and then stirring was stopped. The flocculated solids settled rapidly leaving a clear, colorless supernatant. The “partial oxidation” treatment removed hydrogen sulfide and reduced acid producing bacteria (APB) and sulfate reducing bacteria (SRB) levels to 1-10 cells/mL for each. The ORP increased from −166 mV to 88 mV vs SHE (oxidant was fully consumed) and there was a 20 ppm increase in sulfate concentration due to oxidation of a small portion of sulfur-containing contaminants to sulfate.
(§3) A second water sample was treated by a “full oxidation” in Table II with sodium peracetate oxidant solution. The water was stirred in a closed container while sodium peracetate oxidant was added in a 3.8:1 molar ratio of oxidant to H2S. Aluminum coagulant (about 35 mg/L as Al) was added with the oxidant. The mixture was stirred for 30 seconds and then about 5 mg/L of anionic polymer was added. Large floe formed rapidly over the next 60 seconds and then stirring was stopped. The flocculated solids settled rapidly leaving a clear, colorless supernatant. […]

[7] = tested on: acid producing bacteria (APB); test: Uintah basin produced water: acid producing bacteria level; type: cell-based; details: for APB: untreated 100-1000
Description: as §1, §2, §3

[8] = Treated Water Full Oxidation (3.8:1)
[9] = Treated Water Partial Oxidation (1.25:1)
[10] = full oxidation (3.8:1), after 4 months at room temperature

Row | Compound | ATP and corresponding bacteria population reduced by ([1]; first step: hydrogen peroxide 1.9:1, then coagulant and polymer) | ATP concentration in supernatant ([1]; first step: hydrogen peroxide 1.9:1, then coagulant and polymer, untreated 280 pg/mL) [pg/mL] | time until ORP rose above 100 mV indicating H2S fully oxidized ([2]; 17% wt/wt hydrogen peroxide, 5.7:1 molar to sulfide, no acid) | time until ORP rose above 100 mV indicating H2S fully oxidized ([2]; hydrogen peroxide 5.7:1 with muriatic acid, pH between 6.5 and 7.0) | rate of H2S oxidation when acid was added with the oxidant ([2]; hydrogen peroxide 5.7:1 with muriatic acid versus without) | half-life [3] | microbial growth in guar mixture (preservative effect) [4] | loss of active oxidant concentration ([5]; 0.2% diluted solution, in 55 minutes at 25° C.) [%] | loss of active sodium peracetate per hour ([5]; 0.25% solution, 20° C.) | SRB [6, 8] [cells/mL] | SRB [6, 9] | grow back of SRB [6, 10] | ATP and corresponding bacteria population reduced by, relative to the untreated water ([1]; after second step: sodium peracetate 1.6:1 following hydrogen peroxide step) [%] | ATP concentration in supernatant ([1]; second step: sodium peracetate 1.6:1 after hydrogen peroxide step) [pg/mL] | APB [7, 8] [cells/mL] | APB [7, 9] | grow back of APB [7, 10]
1 | OO [hydrogen peroxide] | about 95% | 14 | about 22 minutes | about 9 minutes | approximately doubled |  |  |  |  |  |  |  |  |  |  |  | 
2 | sodium peracetate [sodium peracetate oxidant solution] |  |  |  |  |  | about 80 minutes | did act as a preservative; also recorded: no microbial growth was observed | ~4 | 4-6% | <1 | 1-10 cells/mL | no detectable grow back | 99 | 3 | <1 | 1-10 cells/mL | no detectable grow back
